Measurements: patent US20150239889A1, “PYRAZOLOPYRIMIDINE COMPOUND” (MITSUBISHI TANABE PHARMA CORPORATION, priority 2012, published 2015)

Key:
human HIF-PHD2 = biological target: T1, human HIF-PHD2 (Homo sapiens, UniProt Q9GZT9); experiment: HIF-PHD inhibition assay (fluorescence polarization), human HIF-PHD2; assay type: biochemical; settings: 2-oxoglutaric acid 3.33 μmol/L
T1 construct: purchased CrystalGenomics Ltd
Method: (§1) The activity of the test compound to inhibit human HIF-PHD2 and human HIF-PHD3 was determined.
(§2) The value of enzyme activity was calculated by subtracting the value of fluorescence polarization before addition of the enzyme from the value of fluorescence polarization after addition of enzyme (mP value).
(§3) FAM: 5′-fluoresceinamide ACA: aminocaproic acid

human HIF-PHD3 = biological target: T2, human HIF-PHD3 (Homo sapiens, UniProt Q9H6Z9); experiment: HIF-PHD inhibition assay (fluorescence polarization), human HIF-PHD3; assay type: biochemical; settings: 2-oxoglutaric acid 166 μmol/L
T2 construct: purchased CrystalGenomics Ltd
T2 sequence (Q9H6Z9 whole entry): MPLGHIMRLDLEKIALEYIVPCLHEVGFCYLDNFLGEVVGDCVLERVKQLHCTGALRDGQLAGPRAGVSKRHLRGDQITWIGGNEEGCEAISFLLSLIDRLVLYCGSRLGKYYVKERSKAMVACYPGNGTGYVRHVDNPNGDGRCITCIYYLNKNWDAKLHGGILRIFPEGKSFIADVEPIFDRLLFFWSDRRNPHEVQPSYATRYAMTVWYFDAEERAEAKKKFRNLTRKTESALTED
Method: as §1, §2, §3

T1 sequence (Q9GZT9 2-426 limits assumed): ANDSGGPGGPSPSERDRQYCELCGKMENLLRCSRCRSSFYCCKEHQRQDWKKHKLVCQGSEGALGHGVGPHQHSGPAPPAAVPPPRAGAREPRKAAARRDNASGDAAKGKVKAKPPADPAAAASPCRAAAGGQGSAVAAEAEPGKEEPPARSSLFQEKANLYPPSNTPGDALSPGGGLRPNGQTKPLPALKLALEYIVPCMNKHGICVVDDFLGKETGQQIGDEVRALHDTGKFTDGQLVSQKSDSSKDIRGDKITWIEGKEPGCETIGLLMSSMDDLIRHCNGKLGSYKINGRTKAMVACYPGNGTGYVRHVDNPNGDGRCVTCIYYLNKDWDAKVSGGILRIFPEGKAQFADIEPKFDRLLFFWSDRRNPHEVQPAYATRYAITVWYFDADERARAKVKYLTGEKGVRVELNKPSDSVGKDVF

Row | Structure (SMILES) | IC50 (human HIF-PHD2) | IC50 (human HIF-PHD3)
1 | C[C@@H](c1cccc(Cl)c1F)n1ncc2nc(-n3cc(C(=O)O)cn3)nc(O)c21 [Example 279] | 120 nM | 560 nM
2 | C[C@H](c1ccc(C(F)(F)F)cc1)n1ncc2nc(-n3cc(C(=O)O)cn3)nc(O)c21 [Example 284] | 150 nM | 830 nM
3 | Cc1ccc(C(F)(F)F)cc1[C@@H](C)n1ncc2nc(-n3cc(C(=O)O)cn3)nc(O)c21 [Example 285] | 76 nM | 870 nM
4 | Cc1ccc(C(F)(F)F)cc1[C@H](C)n1ncc2nc(-n3cc(C(=O)O)cn3)nc(O)c21 [Example 286] | 96 nM | 820 nM
5 | C[C@@H](c1cc(C(F)(F)F)ccc1F)n1ncc2nc(-n3cc(C(=O)O)cn3)nc(O)c21 [Example 288] | 180 nM | 480 nM
6 | C[C@@H](c1ccc2c(c1)CCC2)n1ncc2nc(-n3cc(C(=O)O)cn3)nc(O)c21 [Example 289] | 30 nM | 210 nM
7 | C[C@@H](c1ccc2c(c1)CCCC2)n1ncc2nc(-n3cc(C(=O)O)cn3)nc(O)c21 [Example 290] | 38 nM | 400 nM
8 | CC(c1cc(Cl)cc(Cl)c1)n1ncc2nc(-n3cc(C(=O)O)cn3)nc(O)c21 (stereo not shown) [Example 307] | 45 nM | 500 nM
9 | C[C@@H](c1ccc(OC(F)(F)F)c(Cl)c1)n1ncc2nc(-n3cc(C(=O)O)cn3)nc(O)c21 [Example 318] | 16 nM | 290 nM
10 | CC(c1cc(Cl)c(Cl)s1)n1ncc2nc(-n3cc(C(=O)O)cn3)nc(O)c21 (stereo not shown) [Example 319] | 85 nM | 520 nM
11 | O=C(O)c1cnn(-c2nc(O)c3c(cnn3Cc3ccc(C4CC4)cc3)n2)c1 [Example 321] | 11 nM | 190 nM
12 | CCC(c1ccc(Cl)cc1)n1ncc2nc(-n3cc(C(=O)O)cn3)nc(O)c21 (stereo not shown) [Example 322] | 48 nM | 180 nM
13 | CCC(c1ccc(F)cc1)n1ncc2nc(-n3cc(C(=O)O)cn3)nc(O)c21 (stereo not shown) [Example 324] | 95 nM | 650 nM
14 | CCC(c1ccc(C)cc1)n1ncc2nc(-n3cc(C(=O)O)cn3)nc(O)c21 (stereo not shown) [Example 328] | 60 nM | 530 nM
15 | CCC(c1cc(F)cc(F)c1)n1ncc2nc(-n3cc(C(=O)O)cn3)nc(O)c21 (stereo not shown) [Example 332] | 45 nM | 550 nM
16 | CCC(c1cc(C(F)(F)F)cc(C(F)(F)F)c1)n1ncc2nc(-n3cc(C(=O)O)cn3)nc(O)c21 (stereo not shown) [Example 334] | 260 nM | 2500 nM
17 | CC[C@@H](c1ccc(Cl)c(Cl)c1)n1ncc2nc(-n3cc(C(=O)O)cn3)nc(O)c21 [Example 336] | 23 nM | 170 nM
18 | CCC(c1cc(F)cc(Cl)c1)n1ncc2nc(-n3cc(C(=O)O)cn3)nc(O)c21 (stereo not shown) [Example 339] | 36 nM | 370 nM
19 | CCC(c1cccc(C(F)(F)F)c1)n1ncc2nc(-n3cc(C(=O)O)cn3)nc(O)c21 (stereo not shown) [Example 341] | 52 nM | 790 nM
20 | CC[C@@H](c1cccc(Cl)c1)n1ncc2nc(-n3cc(C(=O)O)cn3)nc(O)c21 [Example 343] | 92 nM | 610 nM
21 | CCC(c1ccc(Cl)cc1F)n1ncc2nc(-n3cc(C(=O)O)cn3)nc(O)c21 (stereo not shown) [Example 350] | 49 nM | 530 nM
22 | CC[C@@H](c1ccc(OC(F)(F)F)c(F)c1)n1ncc2nc(-n3cc(C(=O)O)cn3)nc(O)c21 [Example 352] | 32 nM | 420 nM

Now from value to molecule:

Row | IC50 (human HIF-PHD2) | IC50 (human HIF-PHD3) | Structure (SMILES)
23 | 61 nM | 610 nM | Cc1ccc([C@@H](C)n2ncc3nc(-n4cc(C(=O)O)cn4)nc(O)c32)cc1C(F)(F)F [Example 277]
24 | 120 nM | 420 nM | Cc1ccc([C@H](C)n2ncc3nc(-n4cc(C(=O)O)cn4)nc(O)c32)cc1C(F)(F)F [Example 278]
25 | 62 nM | 850 nM | C[C@H](c1ccc(C(F)(F)F)c(F)c1)n1ncc2nc(-n3cc(C(=O)O)cn3)nc(O)c21 [Example 280]
26 | 20 nM | 450 nM | C[C@@H](c1ccc(C(F)(F)F)c(F)c1)n1ncc2nc(-n3cc(C(=O)O)cn3)nc(O)c21 [Example 281]
27 | 77 nM | 1400 nM | C[C@@H](c1cc(Cl)ccc1F)n1ncc2nc(-n3cc(C(=O)O)cn3)nc(O)c21 [Example 282]
28 | 68 nM | > 3000 nM | Cc1ccc(C)c([C@H](C)n2ncc3nc(-n4cc(C(=O)O)cn4)nc(O)c32)c1 [Example 283]
29 | 48 nM | 840 nM | Cc1ccc(F)cc1[C@H](C)n1ncc2nc(-n3cc(C(=O)O)cn3)nc(O)c21 [Example 287]
30 | 72 nM | 730 nM | Cc1ccc(C(C)n2ncc3nc(-n4cc(C(=O)O)cn4)nc(O)c32)cc1 (stereo not shown) [Example 291]
31 | 61 nM | 510 nM | Cc1cc(C(C)n2ncc3nc(-n4cc(C(=O)O)cn4)nc(O)c32)ccc1Cl (stereo not shown) [Example 293]
32 | 64 nM | 700 nM | Cc1ccc(C(C)n2ncc3nc(-n4cc(C(=O)O)cn4)nc(O)c32)cc1F (stereo not shown) [Example 295]
33 | 66 nM | 660 nM | Cc1ccc(C(C)n2ncc3nc(-n4cc(C(=O)O)cn4)nc(O)c32)cc1Cl (stereo not shown) [Example 297]
34 | 79 nM | 700 nM | Cc1cc(F)cc(C(C)n2ncc3nc(-n4cc(C(=O)O)cn4)nc(O)c32)c1 (stereo not shown) [Example 299]
35 | 54 nM | 710 nM | Cc1cc(C(C)n2ncc3nc(-n4cc(C(=O)O)cn4)nc(O)c32)ccc1F (stereo not shown) [Example 301]
36 | 78 nM | 610 nM | CC(c1ccc(F)c(C(F)(F)F)c1)n1ncc2nc(-n3cc(C(=O)O)cn3)nc(O)c21 (stereo not shown) [Example 303]
37 | 59 nM | 590 nM | CC(c1cc(F)cc(Cl)c1)n1ncc2nc(-n3cc(C(=O)O)cn3)nc(O)c21 (stereo not shown) [Example 305]
38 | 94 nM | 680 nM | Cc1cc(C)cc(C(C)n2ncc3nc(-n4cc(C(=O)O)cn4)nc(O)c32)c1 (stereo not shown) [Example 309]
39 | 67 nM | 770 nM | Cc1ccc(Cl)cc1C(C)n1ncc2nc(-n3cc(C(=O)O)cn3)nc(O)c21 (stereo not shown) [Example 311]
40 | 40 nM | 900 nM | Cc1ccc(F)c(C(C)n2ncc3nc(-n4cc(C(=O)O)cn4)nc(O)c32)c1 (stereo not shown) [Example 313]
41 | 45 nM | 880 nM | CC(c1ccc(Cl)c(C(F)(F)F)c1)n1ncc2nc(-n3cc(C(=O)O)cn3)nc(O)c21 (stereo not shown) [Example 315]
42 | 19 nM | 520 nM | C[C@@H](c1ccc(OC(F)(F)F)c(F)c1)n1ncc2nc(-n3cc(C(=O)O)cn3)nc(O)c21 [Example 317]
43 | 36 nM | 580 nM | CCC(c1ccc(F)c(F)c1)n1ncc2nc(-n3cc(C(=O)O)cn3)nc(O)c21 (stereo not shown) [Example 330]
44 | 32 nM | 420 nM | CCC(c1ccc(F)c(Cl)c1)n1ncc2nc(-n3cc(C(=O)O)cn3)nc(O)c21 (stereo not shown) [Example 337]
45 | 25 nM | 530 nM | CC[C@@H](c1ccc(F)c(C)c1)n1ncc2nc(-n3cc(C(=O)O)cn3)nc(O)c21 [Example 344]
46 | 53 nM | 830 nM | CC[C@@H](c1ccc(C)c(F)c1)n1ncc2nc(-n3cc(C(=O)O)cn3)nc(O)c21 [Example 345]
47 | 65 nM | 530 nM | CCC(c1ccc(Cl)c(C)c1)n1ncc2nc(-n3cc(C(=O)O)cn3)nc(O)c21 (stereo not shown) [Example 346]
